Assay results: patent publication US20120100568A1, “SERUM-FREE MEDIUM FOR INDUCING PLURIPOTENT STEM CELLS QUICKLY WITH HIGH EFFICIENCY AND METHOD USING THEREOF” (GUANGZHOU INSTITUTES OF BIOMEDICINE AND HEALTH, CHINESE …, priority 2009, published 2012)

Legend:
[1] = tested on: MEF cells; assay: Screening compounds in the iPS process in iPS-SF1 medium (relative GFP efficiency by FACS); type: cell-based, mouse; details: iPS-SF1, four factors, day 7; for effect on the efficiency of iPS reprogramming (relative GFP efficiency): PD0325901 1 μM, CHIR99021 3 μM, SU5402 2 μM; for enhancement of the efficiency of iPS reprogramming (relative GFP efficiency): TSA 20 nM, VPA 1 mM
Procedure: The main method for quantifying reprogramming efficiency is FACS analysis for Oct4-GFP positive cells. Based on the results of the timing process, the infected MEF cells were digested with trypsin at days 7 and 9 after infection and then analyzed through FACSCalibur. GFP positive cells received the gates of control signals from PE pathway, and 15,000 events were recorded as a minimum. Cells infected with pMXs-FLAG were used as negative control. In order to verify the efficiency as analyzed by FACS, GFP positive colonies were counted directly under a fluorescence microscope at day 14 after infection.
20,000 MEF cells were plated in each well of a twelve-well plate. The medium was iPS-SF1. Then, the cells were infected with viruses as described above in order to be transfected with the four factors. The compounds as shown in FIG. 6 were added into the medium at the following concentrations respectively: PD0325901 (1 μM), CHIR99021 (3 μM), SU5402 (2 μM, EMDbiosciences), Y-27632 (10 μM), vitamin E (25 μM, Sigma), vitamin A (1 μM, Sigma), A83-01 (0.5 μM, EMD), SB203580 (2 μM), Dorspmorphin (3 μM, Sigma), PFF-α (10 μM), TSA (20 nM, Sigma), VPA (1 mM, EMD), JAK inhibitor (0.3 μM, EMD), 5aza-DC (1 μM, Sigma), BIX01294 (1 μM), Bayk8644 (2 μM, EMD).
At day 7 after infection, cells were collected for FACS analysis as described above, and the relative GFP efficiency was measured. […] However, under conditions using the medium of the present invention, the compounds that had been previously reported as favorable to self-renewal of mouse embryonic stem cells, such as PD0325901, CHIR99021, and SU5402 reduced the efficiency of iPS reprogramming.

[2] = tested on: MEF cells; assay: Effects of medium components, growth factors and serum on iPS reprogramming efficiency (Oct4-GFP FACS); type: cell-based, mouse; details: for effect on the induction of the iPS reprogramming process: added to iPS-SF1 without bFGF, four factors, Oct4-GFP at day 7
Procedure: The main method for quantifying reprogramming efficiency is FACS analysis for Oct4-GFP positive cells. Based on the results of the timing process, the infected MEF cells were digested with trypsin at days 7 and 9 after infection and then analyzed through FACSCalibur. GFP positive cells received the gates of control signals from PE pathway, and 15,000 events were recorded as a minimum. Cells infected with pMXs-FLAG were used as negative control. In order to verify the efficiency as analyzed by FACS, GFP positive colonies were counted directly under a fluorescence microscope at day 14 after infection. LIF, N2, and bFGF in iPS-SF1 medium as listed in Table 1 were deleted respectively, or N2 and bFGF were added into DMEM+10% KOSR (i.e., containing no growth factor but containing NEAA, L-Glutamine or other ingredients at the same time, called as bKSR hereinafter) medium at concentrations equivalent to that of iPS-SF1 respectively, in order to detect the effects of LIF, N2, bFGF on the iPS reprogramming efficiency of MEF cells transfected with the four factors. […] In order to verify whether other tyrosine kinases and estrogens can play a role in inducing reprogramming of iPS cells in the medium of the present invention, after MEF cells were infected with the four-factor viruses, the following media were used instead, wherein the blank control was iPS-SF1 without bFGF, the experimental group was the blank medium (i.e., iPS-SF1 without bFGF) supplemented with various receptor tyrosine kinases (including basic fibroblast growth factor bFGF, epidermal growth factor EGF, vascular endothelial growth factor VEGF, insulin-like growth factor 2 IGF2, and estradiol), and a serum medium (FBS) was used as the negative control of this experiment.

Question: How did the “effect on the efficiency of iPS reprogramming (relative GFP efficiency)” value (“effect … (relative GFP efficiency)” below) [1] turn out when `Cc1c[nH]c(/C=C2\C(=O)Nc3ccccc32)c1CCC(=O)O` [SU5402] was run?
Answer: reduced

Question: For basic fibroblast growth factor [bFGF], which “effects on iPS reprogramming efficiency” value ([2]; component added to bKSR or deleted from iPS-SF1, four factors, day 7) is on record?
Answer: even higher than those of LIF

Question: How did the “effect on the induction of the iPS reprogramming process” value (“effect on the induction” below) [2] turn out when insulin-like growth factor 2 [IGF2] was run?
Answer: comparable effects

Question: `CCCC(CCC)C(=O)O` [VPA] was tested. Which “enhancement of the efficiency of iPS reprogramming (relative GFP efficiency)” value [1] did it give?
Answer: 100%

Question: Which “effect on the induction” value [2] does the source give for “vascular endothelial growth factor [VEGF]” here?
Answer: comparable effects

Question: `CC(/C=C/C(=O)NO)=C\[C@@H](C)C(=O)c1ccc(N(C)C)cc1` [TSA] was tested. Which “enhancement of the efficiency of iPS reprogramming (relative GFP efficiency)” value [1] did it give?
Answer: 100%

Question: Which “effect … (relative GFP efficiency)” value [1] does the source give for `O=C(NOC[C@H](O)CO)c1ccc(F)c(F)c1Nc1ccc(I)cc1F` [PD0325901] here?
Answer: reduced

Question: Which “effect on the induction” value [2] does the source give for “epidermal growth factor (NSDSECPLSHDGYCLHDGVCMYIEALDKYACNCVVGYIGERCQYRDLKWWELR; Epidermal growth factor; UniProt P01133 971-1023, looked up) [EGF]” here?
Answer: comparable effects

Question: For `Cc1c[nH]c(-c2cnc(NCCNc3ccc(C#N)cn3)nc2-c2ccc(Cl)cc2Cl)n1` [CHIR99021], which “effect … (relative GFP efficiency)” value [1] is on record?
Answer: reduced

Question: `C[C@]12CC[C@@H]3c4ccc(O)cc4CC[C@H]3[C@@H]1CC[C@@H]2O` [estrogen, estradiol] was tested. Which “effect on the induction” value [2] did it give?
Answer: comparable effects
